Assay results from patent publication US20190374628A1, “MUTATED FRAGMENTS OF THE RAS PROTEIN” (Targovax ASA, priority 2015, published 2019).
Where “and” joins values, the source holds several entries; their conditions need not be identical. Identical values can stand only once.

Assays:
[1] = test system: splenocytes; experiment: Splenocyte proliferation assay (3H-thymidine) after subcutaneous vaccination of mice with TG02; format: cell-based, BALB/c mice; settings: ex vivo 10 μM TG02 per peptide or 1 μg/200 μL ConA, 5 days; for Counts per minute (CPM) of stimulated splenocytes: single replicates
Procedure: In this Example, mice were repeatedly vaccinated subcutaneously with TG02, in order to analyse the immune response. Following the vaccination, splenocytes were harvested, and the proliferative response of the splenocytes was measured.
The study was conducted with 3 groups, each compromising 10 female BALB/c mice. The start of the study was performed on two separate days on which 5 of the animals per group were treated. Therefore the groups were divided into part I and part II. The animals were treated subcutaneously at different time points (Table 30).
In all groups the test item was administered at repeated time points (Table 33) by subcutaneous injection between the nape of the neck and the shoulder. The application volume for all groups was 0.1 mL (0.80 mg TG02).
The spleen of all animals was removed, transferred to cell culture medium (RPMI 1640 medium supplemented with 10% FCS, 100 U/mL Penicillin, 100 μg/mL Streptomycin, 2 mM L-Glutamine, and 50 μM beta-mercaptoethanol) and stored on ice. All steps were performed sterile and cells were kept on ice.
A single cell suspension from splenic cells was generated using a cell strainer. After centrifugation (350 g, 5 min, 5±3° C.), supernatant was removed and the cell pellet was resuspended in ACK buffer and incubated for 5 min at RT. 10 mL cell culture medium was added. The samples were left 5 min on bench top to let the cell debris sediment. The suspension above the cell debris was transferred into another tube and was centrifuged (350 g, 5 min, 5±3° C.). The supernatant was removed and the cell pellet was resuspended in 10 mL cell culture medium. After counting of cells, 0.2 Mio cells were seeded in a 96 well plate (180 μL per well; 1,1*10^6 cells/mL). 9 replicates were plated on each plate for each spleen.
The following stimulations were performed: • 3 replicates: unstimulated (addition of 20 μL cell culture medium) • 3 replicates: stimulation with 10 μM TG02 (8 peptides, 10 μM end concentration per peptide, addition in 20 μL cell culture medium) • 3 replicates: stimulation with 1 μg/200 μL ConA (Concanavalin A) (addition of 1 μg ConA in 20 μL cell culture medium)
Incubation at 37° C. and 5% CO2 for 24 h (1), 48 h (2) or 5 days (3).
Proliferation Assay • (3) After 5 days, 1 μCi/well ^3H-Thymidine was added to the samples, which were then incubated for 18 h at 37° C. and 5% CO2. The plates were then frozen at […]
Plates were thawed at RT. After washing off the harvester, the samples were transferred to a filter plate using the harvester followed by 5 washing steps using water. Filter plates were dried at RT overnight. A foil was stuck to the bottom of the filter plates and 20 μL scintillation fluid was added to the wells. After incubation of 1 h at RT, the samples were measured using a TopCount NXT and the stimulation index (SI) was calculated. SI=CPM of stimulated samples/CPM of control samples.

[2] = test system: T-cells; experiment: Bulk cultures for increasing number of TGX3 and peptide reactive T-cells: total T cell numbers; format: cell-based, human; settings: for Total T cell numbers in cultures: Day 14, after first stimulation, 10 μM of each peptide; for Total T cell numbers: Day 19, after second stimulation
Procedure: b) First Stimulation—Bulk Cultures for Increasing Number of TGX3 and Peptide Reactive T-Cells • 1. Transfered 1 ml of the different PBMCs (4×10^6 cells/ml in DC medium) to each well in a 24-well plate.
• 2. Added TGX3-mix/single peptide to each well for a final concentration of 10 μM of each peptide. • 3. Cultured the cells in a humidified incubator at 37° C./5% CO2 for 3 days • 4. Day 3: Added a final concentration of 20 iU/ml of recombinant human interleukin-2 (rIL-2, b#77) and final concentration of 5 ng/ml recombinant human IL-7 (b#25) to the cell cultures and continued incubation at 37° C./5% CO2. This depended on how fast the cells were growing and needed to be decided by a trained person with T-cell culture experience (according to checklist for training, Section for Cell Therapy). • 5. Days 4-12: Cells were checked regularly under the microscope and split when required (500 μl was withdrawn from each well and replaced with 500 μl fresh CellGro DC medium, supplemented with 20 iU/ml IL-2 and 5 ng/ml IL-7) and wells with slow growing cells were mixed together.
c) Second Stimulation (Day 14) of Bulk Cultures • 1. Day 14: Harvested, washed and counted T-cells in the bulk cultures from 6.2;
Bulk culture cells (ca 2×10^6 T cells/well) were re-stimulated once more with autologous irradiated (30 Gy) APCs (ca 2×10^6 APCs/well) added their respective peptides (as described in step b) above). • 2. Cultured the cells in a humidified incubator at 37° C./5% CO2 for 3 days. • 3. Day 3 after second stimulation (i.e. Day 17 of the procedure): A final concentration of 20 iU/ml of recombinant human interleukin-2 (rIL-2, b#77) and final concentration of 5 ng/ml recombinant human IL-7 (b#25) were added to the cell cultures and continued incubation at 37° C./5% CO2 (as described in step b) above). • 4. Day 18-26: Cells were checked regularly under the microscope and split when required (500 μl was withdrawn from each well and replaced with 500 μl fresh CellGro DC medium, supplemented with 20 iU/ml IL-2 and 5 ng/ml IL-7) and wells with slow growing cells were mixed together (see step b) above).
d) Third Stimulation (Day 19) and Testing for Specificities in 3-Day T-Cell Proliferation Assay—Bulk Cultures • 1. Day 19: Harvested, washed and counted T-cells in the bulk cultures from 6.3;

[3] = test system: T-cells; experiment: 3-day T-cell proliferation assay after stimulation of buffy coat PBMCs with TGX3 or A146T peptide; format: cell-based, human; settings: buffy coat of healthy donor (buffy 5), FIG. 11
From the text: In this Example, Buffy coats were collected from three normal donors (Buffy 5, Buffy 6, and Buffy 7) for testing of T cell responses to selected peptides reflecting exon 2, 3 and 4 mutations in RAS. The standard operating procedure (SOP) for monitoring of T cell responses in clinical studies with KRAS peptide vaccination (TG01) was used for testing of peptide cocktail TGX3 and individual peptides.
Peptide cocktail TGX3 was a mixture of equimolar amounts of A146T+G13C+G13D+Q61R.
The procedure was performed at room temperature. All handling of cells in the open was done in a vertical laminar flow hood. • 1. 3 Buffy coats were ordered from Blodbanken, Ulleval, OUS, Norway • 2. PBMCs were isolated according to methods C001-003 (platelet-low). • 3. The number of viable cells was counted using KOVA Galsstic slides and the cell concentration adjusted to 4×10^6 cells/ml in complete CellGro DC medium (see recipe). Total cell numbers: Buffy 5-585×10^6, Buffy 6-360×10^6, and Buffy 7-405×10^6 cells. […]
c) Second Stimulation (Day 14) of Bulk Cultures • 1. Day 14: Harvested, washed and counted T-cells in the bulk cultures from 6.2; […]
d) Third Stimulation (Day 19) and Testing for Specificities in 3-Day T-Cell Proliferation Assay—Bulk Cultures • 1. Day 19: Harvested, washed and counted T-cells in the bulk cultures from 6.3; […]

Substance	Mean counts per minute (CPM) of stimulated splenocytes ([1]; Mean Mouse #4 (vaccinated with TG02))	Mean counts per minute (CPM) of stimulated splenocytes ([1]; Mean Mouse #7 (vaccinated with TG02)) [CPM]	Mean counts per minute (CPM) of stimulated splenocytes ([1]; Mean Mouse #24 (vaccinated with TG02+Viscogel)) [CPM]	Mean counts per minute (CPM) of stimulated splenocytes ([1]; Mean Mouse #29 (vaccinated with TG02+Viscogel))	Counts per minute (CPM) of stimulated splenocytes ([1]; Mouse #4 (vaccinated with TG02))	Counts per minute (CPM) of stimulated splenocytes ([1]; Mouse #7 (vaccinated with TG02))	Counts per minute (CPM) of stimulated splenocytes ([1]; Mouse #24 (vaccinated with TG02+Viscogel))	Counts per minute (CPM) of stimulated splenocytes ([1]; Mouse #29 (vaccinated with TG02+Viscogel))	Counts per minute (CPM) of stimulated splenocytes ([1]; Mouse #30 (vaccinated with TG02+Viscogel))	Mean counts per minute (CPM) of stimulated splenocytes ([1]; Mouse #30 mean line (vaccinated with TG02+Viscogel))	Total T cell numbers in cultures ([2]; Buffy 5)	Total T cell numbers ([2]; Buffy 5)	Total T cell numbers in cultures ([2]; Buffy 6)	Total T cell numbers ([2]; Buffy 6)	Total T cell numbers in cultures ([2]; Buffy 7)	Total T cell numbers ([2]; Buffy 7)	T-cell proliferation after stimulation with A146T peptide (result in words) [3]	T-cell proliferation after stimulation with A146T peptide (result in words) ([3]; listed as A146T peptide)
Concanavalin A [ConA]	15,210 CPM	6158	8823	10,935 CPM	15,113 CPM and 12,612 CPM and 17,906 CPM	5305 CPM and 6252 CPM and 6916 CPM	7834 CPM and 8578 CPM and 10,057 CPM	9480 CPM and 13,292 CPM and 10,033 CPM	32,205 CPM and 35,668 CPM and 42,149 CPM	36,687 CPM								
GIPFIETSTKTRQRVED (listed as Homo sapiens) [A146T, KRAS peptide having a A146T mutation]											4 × 10^6	10.8 × 10^6	4 × 10^6	12.6 × 10^6	6.8 × 10^6	14.4 × 10^6	immunogenic and is efficient in inducing T-cell proliferation	stimulates induction of T-cells
